Structures can show the parent of a compound that is named as a salt.
Key:
[1] = tested on: late components of human complement (C3-C9); assay: Test, Code 035 (C3-C9 inhibitor), lysis of EAC 142; format: biochemical; details: two-fold serial dilution assay; higher well number indicates higher activity
Source text: An active inhibitor protects C2 from C1 and C4; (ii) Test, Code 035 (C3-C9 inhibitor) - This test determines the ability of the late components of human complement (C3-C9) to lyse EAC 142 in the presence of appropriate dilutions of the test compound. An active inhibitor protects EAC 142 from lysis by human C3-C9; (iii) Test, Code 036 (C-Shunt inhibitor) - In this test human erythrocytes rendered fragile are lysed in autologous serum via the shunt pathway activated by cobra venom factor in the presence of appropriate dilutions of the test compound. Inhibition of the shunt pathway results in failure of lysis; (iv) Forssman Vasculitis Test - Here, the well known complement dependent lesion, Forssman Vasculitis, is produced in guinea pigs by intradermal injection of rabbit anti-Forssman antiserum. […]

[2] = tested on: whole complement; assay: Complement Level Reduction Test (in vivo, capillary tube assay of serum); set-up: species or system guinea pig; details: 200 mg/kg

O=S(=O)(O)c1cc(NC(=S)Nc2ccc(Oc3ccc(NC(=S)Nc4cc(S(=O)(=O)O)cc5cc(S(=O)(=O)O)cc(S(=O)(=O)O)c45)c(NC(=S)Nc4cc(S(=O)(=O)O)cc5cc(S(=O)(=O)O)cc(S(=O)(=O)O)c45)c3)cc2NC(=S)Nc2cc(S(=O)(=O)O)cc3cc(S(=O)(=O)O)cc(S(=O)(=O)O)c23)c2c(S(=O)(=O)O)cc(S(=O)(=O)O)cc2c1 [8,8',8",8'"-{Oxybis[4,1,2-phenylbis(2-thioureylene)]}-tetra-1,3,6-naphthalenetrisulfonic acid dodecasodium salt]
C-Late 035 Wells [1]: +2 Wells | In Vivo Activity (Guinea Pig) % Inhibition ([2]; Intraperitoneal, 30 minutes): -82% | In Vivo Activity (Guinea Pig) % Inhibition ([2]; Intraperitoneal, 60 minutes): -88% | In Vivo Activity (Guinea Pig) % Inhibition ([2]; Intraperitoneal, 120 minutes): -94% | In Vivo Activity (Guinea Pig) % Inhibition ([2]; Intravenous, 2 minutes): -98% | In Vivo Activity (Guinea Pig) % Inhibition ([2]; Intravenous, 30 minutes): -95% | In Vivo Activity (Guinea Pig) % Inhibition ([2]; Intravenous, 120 minutes): -91%
